Reference: patent US9511134B2, “Inducing immune responses to influenza virus using polypeptide and nucleic acid compositions” (priority 2006, dated 2016)
Where no end group is shown, it is not given here.

Legend:
Assay in all cases: biochemical
Assay type in all cases: binding
DRB1*1501 = molecular target: T1, DRB1*1501 (Homo sapiens, UniProt P01903+P01911); conditions: read-out: IC50 nM to purified HLA DRB1*1501
T1 construct: made in house; host or cells: EBV-transformed homozygous human B cell lines, transfected fibroblasts or single-allele 721.221 transfectants

DRB1*0101 = molecular target: T2, DRB1*0101 (Homo sapiens, UniProt P01903+P01911, A100R/D57E/F55L/F60I/F76Y/I96L/L162R/M171V/P40L/Q125E/R42F/V115G/Y59C); conditions: IC50 nM to purified HLA DRB1*0101
T2 construct: made in house; host or cells: EBV-transformed homozygous human B cell lines, transfected fibroblasts or single-allele 721.221 transfectants

DRB1*1302 = DRB1*1302 (Homo sapiens, UniProt P01903+P01911, A100E/A169T/K41T/L162R/M171V/P40S/Q125H/Q178H/Q39Y/Q99D/R42S/S66N/T262R/V115G/W38E/Y61H); conditions: read-out: IC50 nM to purified HLA DRB1*1302
DRB1*0401 = molecular target: T3, DRB1*0401 (Homo sapiens, UniProt P01903+P01911, A100K/A169T/F76Y/I96L/K127E/L162R/M171V/N62H/P40V/Q125Y/R42H/S133A/S149N/S66Y/V115G/V209L/W38E); conditions: read-out: IC50 nM to purified HLA DRB1*0401
T3 construct: made in house; host or cells: EBV-transformed homozygous human B cell lines, transfected fibroblasts or single-allele 721.221 transfectants

DRB1*0301 = molecular target: T4, DRB1*0301 (Homo sapiens, UniProt P01903+P01911, A100K/A102G/A103R/A169T/F55Y/I96L/K41T/L162R/M171V/P40S/Q125H/Q178H/Q39Y/R42S/S66N/T106N/T262R/W38E/Y61H)
T4 construct: made in house; host or cells: EBV-transformed homozygous human B cell lines, transfected fibroblasts or single-allele 721.221 transfectants
T4 sequence (P01903 26-254, other chains not shown): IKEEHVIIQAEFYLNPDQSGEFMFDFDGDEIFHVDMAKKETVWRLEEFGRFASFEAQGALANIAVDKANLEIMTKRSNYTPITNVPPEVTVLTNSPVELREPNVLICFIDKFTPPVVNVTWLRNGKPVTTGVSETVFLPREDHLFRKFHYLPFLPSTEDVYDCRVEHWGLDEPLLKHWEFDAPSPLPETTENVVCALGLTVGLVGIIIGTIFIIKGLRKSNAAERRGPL

Sequence of DRB1*1302 (P01903 26-254 limits assumed, other chains not shown): as the sequence (P01903 26-254, other chains not shown) above

| Compound | IC50 (DRB1*1501) | IC50 (DRB1*0101) | IC50 (DRB1*1302) | IC50 (DRB1*0401) | IC50 (DRB1*0301) |
| --- | --- | --- | --- | --- | --- |
| CC[C@H](C)[C@H](NC(=O)[C@H](CC(C)C)NC(=O)[C@H](Cc1c[nH]c2ccccc12)NC(=O)[C@@H](NC(=O)[C@@H](NC(=O)[C@H](CC(N)=O)NC(=O)[C@H](CCCNC(=N)N)NC(=O)[C@H](Cc1ccccc1)NC(=O)[C@H](Cc1ccccc1)NC(=O)[C@H](CO)NC(=O)[C@H](CO)NC(=O)[C@@H](N)CCCCN)C(C)C)C(C)C)C(=O)N[C@@H](CCCCN)C(=O)N[C@@H](CCCCN)C(=O)N[C@@H](CC(N)=O)C(=O)O [Flu.HA.156] | 832 nM | 46 nM | 20 nM | 474 nM |  |
| CC[C@H](C)[C@H](NC(=O)[C@H](Cc1ccc(O)cc1)NC(=O)[C@@H](NC(=O)[C@@H](NC(=O)[C@@H]1CCCN1C(=O)[C@H](CC(N)=O)NC(=O)[C@H](CCC(N)=O)NC(=O)[C@H](Cc1ccc(O)cc1)NC(=O)[C@H](CC(C)C)NC(=O)[C@H](CCCCN)NC(=O)[C@@H](NC(=O)[C@@H](N)CCC(N)=O)[C@@H](C)O)[C@@H](C)O)[C@@H](C)O)C(=O)N[C@@H](CO)C(=O)N[C@H](C(=O)NCC(=O)N[C@H](C(=O)O)[C@@H](C)O)C(C)C [Flu.HA.203] | 60 nM |  | 18 nM |  |  |
| CSCC[C@H](NC(=O)[C@H](CC(C)C)NC(=O)[C@@H](NC(=O)[C@H](CC(C)C)NC(=O)[C@@H](N)CC(C)C)C(C)C)C(=O)N[C@@H](CCC(=O)O)C(=O)N[C@@H](CC(N)=O)C(=O)N[C@@H](CCC(=O)O)C(=O)N[C@@H](CCCNC(=N)N)C(=O)N[C@H](C(=O)N[C@@H](CC(C)C)C(=O)N[C@@H](CC(=O)O)C(=O)N[C@@H](Cc1ccccc1)C(=O)N[C@@H](Cc1c[nH]cn1)C(=O)N[C@@H](CC(=O)O)C(=O)O)[C@@H](C)O [Flu.HA.444] |  |  |  |  | 64 nM |
| CC[C@H](C)[C@H](NC(=O)[C@H](CC(C)C)NC(=O)[C@H](CC(=O)O)NC(=O)[C@H](CC(=O)O)NC(=O)[C@H](CCCCN)NC(=O)[C@H](CC(C)C)NC(=O)CNC(=O)[C@H](C)NC(=O)[C@@H](N)CO)C(=O)N[C@@H](CCC(=O)O)C(=O)N[C@@H](CC(N)=O)C(=O)N[C@@H](CC(C)C)C(=O)N[C@@H](CCC(N)=O)C(=O)N[C@@H](C)C(=O)N[C@@H](Cc1ccc(O)cc1)C(=O)O [Flu.M1.229] |  |  |  |  | 64 nM |
| CC[C@H](C)[C@H](N)C(=O)NCC(=O)N[C@@H](CC(N)=O)C(=O)N[C@@H](CCSC)C(=O)N[C@H](C(=O)N[C@@H](CO)C(=O)N[C@H](C(=O)N[C@@H](Cc1c[nH]c2ccccc12)C(=O)N[C@H](C(=O)N[C@@H](CO)C(=O)N[C@@H](Cc1c[nH]cn1)C(=O)N[C@@H](CO)C(=O)N[C@H](C(=O)N[C@@H](Cc1c[nH]cn1)C(=O)N[C@H](C(=O)NCC(=O)O)[C@@H](C)O)[C@@H](C)CC)C(C)C)[C@@H](C)CC)[C@@H](C)CC [Flu.NA.26] | 81 nM | 1050 nM | 5950 nM |  |  |
| CC(C)C[C@H](NC(=O)[C@H](C)NC(=O)CNC(=O)[C@H](CCC(N)=O)NC(=O)[C@@H](NC(=O)[C@H](CC(C)C)NC(=O)[C@H](Cc1ccccc1)NC(=O)[C@H](Cc1ccccc1)NC(=O)[C@@H](NC(=O)[C@@H](N)CCCNC(=N)N)[C@@H](C)O)[C@@H](C)O)C(=O)N[C@@H](CC(C)C)C(=O)N[C@@H](CC(N)=O)C(=O)N[C@@H](CC(=O)O)C(=O)N[C@@H](CCCCN)C(=O)N[C@@H](Cc1c[nH]cn1)C(=O)N[C@@H](CO)C(=O)O [Flu.NA.110] | 790 nM | 16 nM | 3210 nM | 251 nM |  |
| CC[C@H](C)[C@H](NC(=O)[C@H](CC(N)=O)NC(=O)[C@H](CC(N)=O)NC(=O)[C@H](CCCNC(=N)N)NC(=O)[C@H](Cc1c[nH]c2ccccc12)NC(=O)[C@H](CO)NC(=O)[C@H](CCCCN)NC(=O)[C@@H](NC(=O)[C@@H](NC(=O)[C@H](CC(=O)O)NC(=O)[C@@H](NC(=O)[C@@H](NC(=O)[C@@H](NC(=O)CNC(=O)[C@H](CC(N)=O)NC(=O)[C@@H](N)Cc1ccc(O)cc1)[C@@H](C)CC)[C@@H](C)CC)[C@@H](C)O)[C@@H](C)O)[C@@H](C)CC)C(=O)O [Flu.NA.188] | 31 nM |  | 370 nM |  |  |
| CC(C)C[C@H](NC(=O)[C@H](CCC(=O)O)NC(=O)[C@@H](NC(=O)[C@H](CO)NC(=O)[C@H](CCCCN)NC(=O)[C@@H](N)C(C)C)C(C)C)C(=O)N[C@@H](CC(=O)O)C(=O)N[C@@H](C)C(=O)N1CCC[C@H]1C(=O)N[C@@H](CC(N)=O)C(=O)N[C@@H](Cc1ccc(O)cc1)C(=O)N[C@@H](Cc1c[nH]cn1)C(=O)N[C@@H](Cc1ccc(O)cc1)C(=O)N[C@@H](CCC(=O)O)C(=O)N[C@@H](CCC(=O)O)C(=O)O [Flu.NA.244] |  |  | 197 nM |  | 65 nM |
| CC(C)C[C@H](NC(=O)[C@H](CO)NC(=O)[C@H](CCCCN)NC(=O)[C@H](CCC(N)=O)NC(=O)[C@H](CC(=O)O)NC(=O)[C@H](CCCNC(=N)N)NC(=O)[C@H](CCCNC(=N)N)NC(=O)[C@H](CC(C)C)NC(=O)[C@H](CCCNC(=N)N)NC(=O)[C@H](CC(=O)O)NC(=O)[C@@H](N)CC(C)C)C(=O)N[C@@H](CCCNC(=N)N)C(=O)NCC(=O)N[C@@H](CCCNC(=N)N)C(=O)NCC(=O)O [Flu.NS1.36] |  | 800 nM |  |  | 83 nM |
| CC[C@H](C)[C@H](NC(=O)[C@H](CCCNC(=N)N)NC(=O)[C@H](CCC(=O)O)NC(=O)[C@@H](N)C(C)C)C(=O)N[C@@H](CC(C)C)C(=O)N[C@@H](CCCCN)C(=O)N[C@@H](CCC(=O)O)C(=O)N[C@@H](CCC(=O)O)C(=O)N[C@@H](CO)C(=O)N[C@@H](CC(=O)O)C(=O)N[C@@H](CCC(=O)O)C(=O)N[C@@H](C)C(=O)N[C@@H](CC(C)C)C(=O)N[C@@H](CCCCN)C(=O)N[C@@H](CCSC)C(=O)O [Flu.NS1.68] |  | 5190 nM | 5060 nM | 679 nM | 1050 nM |
| CC[C@H](C)[C@H](NC(=O)[C@H](CC(C)C)NC(=O)[C@H](CCSC)NC(=O)[C@H](CC(C)C)NC(=O)[C@H](Cc1c[nH]c2ccccc12)NC(=O)[C@H](CC(=O)O)NC(=O)[C@H](CCCNC(=N)N)NC(=O)[C@H](CO)NC(=O)[C@H](CCSC)NC(=O)[C@H](CCC(=O)O)NC(=O)[C@H](CCC(=O)O)NC(=O)[C@@H](N)CC(C)C)C(=O)N1CCC[C@H]1C(=O)N[C@@H](CCCCN)C(=O)N[C@@H](CCC(N)=O)C(=O)O [Flu.NS1.98] |  |  |  |  | 170 nM |
| CC(C)C[C@H](NC(=O)[C@H](CCCCN)NC(=O)[C@H](CCCNC(=N)N)NC(=O)[C@H](CO)NC(=O)[C@H](CCC(=O)O)NC(=O)[C@H](C)NC(=O)[C@H](CO)NC(=O)[C@H](Cc1ccccc1)NC(=O)CNC(=O)[C@H](CCC(=O)O)NC(=O)[C@@H](N)CC(C)C)C(=O)N[C@@H](CC(C)C)C(=O)N[C@@H](CC(C)C)C(=O)N[C@H](C(=O)N[C@H](C(=O)O)C(C)C)C(C)C [Flu.PA.658] |  | 12 nM | 2270 nM | 861 nM | 661 nM |
| CC[C@H](C)[C@H](NC(=O)[C@@H](N)CC(C)C)C(=O)N[C@@H](CC(=O)O)C(=O)N[C@@H](Cc1ccccc1)C(=O)N[C@@H](CC(C)C)C(=O)N[C@@H](CCCCN)C(=O)N[C@@H](CC(=O)O)C(=O)N[C@H](C(=O)N[C@@H](CCSC)C(=O)N[C@@H](CCC(=O)O)C(=O)N[C@@H](CO)C(=O)N[C@@H](CCSC)C(=O)N[C@@H](CC(=O)O)C(=O)N[C@@H](CCCCN)C(=O)N[C@@H](CCC(=O)O)C(=O)O)C(C)C [Flu.PB1.166] |  |  |  |  | 120 nM |
| CSCC[C@H](NC(=O)[C@H](CCCCN)NC(=O)[C@H](CO)NC(=O)[C@@H](N)C(C)C)C(=O)NCC(=O)N[C@H](C(=O)N[C@@H](CC(=O)O)C(=O)N[C@@H](CCC(=O)O)C(=O)N[C@@H](Cc1ccc(O)cc1)C(=O)N[C@@H](CO)C(=O)N[C@@H](CO)C(=O)N[C@H](C(=O)N[C@@H](CCC(=O)O)C(=O)N[C@@H](CCCNC(=N)N)C(=O)N[C@H](C(=O)O)C(C)C)[C@@H](C)O)C(C)C [Flu.PB2.483] |  |  | 1850 nM |  | 1020 nM |
| CC[C@H](C)[C@H](NC(=O)[C@H](CC(C)C)NC(=O)[C@@H](N)Cc1ccccc1)C(=O)N[C@@H](CC(C)C)C(=O)NCC(=O)N[C@@H](CCCCN)C(=O)N[C@@H](CCC(=O)O)C(=O)N[C@@H](CC(=O)O)C(=O)N[C@@H](CCCNC(=N)N)C(=O)N[C@@H](CCCNC(=N)N)C(=O)N[C@@H](Cc1ccc(O)cc1)C(=O)NCC(=O)N1CCC[C@H]1C(=O)N[C@@H](C)C(=O)N[C@@H](CC(C)C)C(=O)O [Flu.PB2.697] |  | 8390 nM | 118 nM | 1740 nM | 565 nM |
| CC[C@H](C)[C@H](NC(=O)[C@H](CCCNC(=N)N)NC(=O)[C@H](CCCCN)NC(=O)[C@@H](NC(=O)[C@H](C)NC(=O)[C@@H](NC(=O)[C@H](CCC(N)=O)NC(=O)[C@H](CO)NC(=O)[C@H](CC(=O)O)NC(=O)[C@@H](NC(=O)[C@H](CC(C)C)NC(=O)[C@@H](NC(=O)[C@H](CO)NC(=O)[C@H](CO)NC(=O)[C@@H](N)CC(=O)O)[C@@H](C)CC)[C@@H](C)O)[C@@H](C)O)[C@@H](C)O)C(=O)O [Flu.PB2.743] |  |  |  |  | 36 nM |
| CEQIADSQHRSHRQM [Flu.M1.154] |  |  |  |  | 804 nM |
| MEWLKTRPILSPLTK [Flu.M1.46] | 111 nM | 52 nM | 3870 nM | 528 nM |  |
| TRPILSPLTKGILGF [Flu.M1.51] | 140 nM | 423 nM | 292 nM |  |  |
